As usually defined, the IC50 is the concentration needed to halve the response being measured.

The values that follow come from patent US20170253607A1, “LONG-ACTING HIV PROTEASE INHIBITOR” (Shionogi & Co., Ltd., priority 2014, published 2017).

In this test the target is HIV-1 PR (Human immunodeficiency virus type 1 group M subtype B, UniProt P04585). Put plainly: HIV-protease inhibitory activity assay (FRET peptide substrate). To be noted: Test Example 1. It counts as biochemical. In outline:
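Compounds were preincubated with HIV-1 PR (0.83 ng) at room temperature in pH 4.8 NaAc buffer (0.5 M NaCl, EDTA, DTT, Tween 20), then HiLyte Fluor 488/QXL 520 FRET peptide (2 μmol/L final) was added for 60 min. Fluorescence was read at 485/535 nm, and IC50 was fitted by four-parameter logistic regression.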
The compound `COc1ccc(S(=O)(=O)N(CC(C)C)CC(O)C(Cc2ccc(N3C(=O)c4cccc(-c5sc6c(c5C(=O)O)CC(C)(C)CC6)c4C3=O)cc2)NC(=O)OC2COC3(C)OCCC23)cc1` (centres unmarked) [Compound I-620] registered an IC50 of 2.22 nM. The result for `COc1ccc(S(=O)(=O)N(CC(C)C)CC(O)C(Cc2ccc(N3C(=O)c4ccc(-c5sc6c(c5C(=O)O)CC(C)(C)CC6)cc4C3=O)cc2)NC(=O)OC2COC3(C)OCCC23)cc1` (centres unmarked) [Compound I-621] reads 1.84 nM. The result for `COc1ccc(S(=O)(=O)N(CC(C)C)CC(O)C(Cc2ccc(N(C)CC3CCCCC3C(=O)Nc3sc4c(c3C(=O)O)CC(C)(C)CC4)cc2)NC(=O)OC2COC3(C)OCCC23)cc1` (centres unmarked) [Compound I-622] reads 3.71 nM. In turn, `COc1ccc(S(=O)(=O)N(CC(C)C)CC(O)C(Cc2ccc(NCC3=C(c4sc5c(c4C(=O)O)CC(C)(C)CC5)C4CC(C3)C4(C)C)cc2)NC(=O)OC2COC3(C)OCCC23)cc1` (centres unmarked) [Compound I-626] displayed an IC50 of 4.58 nM. The result for `COc1ccc(S(=O)(=O)N(CC(C)C)CC(O)C(Cc2ccc(N(C)CC3=C(c4sc5c(c4C(=O)O)CC(C)(C)CC5)C4CC(C3)C4(C)C)cc2)NC(=O)OC2COC3(C)OCCC23)cc1` (centres unmarked) [Compound I-628] reads 5.03 nM; that for `COc1ccc(S(=O)(=O)N(CC(C)C)CC(O)C(Cc2ccc(N(C)CC3CCCCC3C(=O)Nc3sc4c(c3C(=O)O)CC(C)(C)CC4)cc2)NC(=O)OC2COC3(C)OCCC23)cc1` (centres unmarked) [Compound I-629], 2.35 nM. Turning to `COc1ccc(S(=O)(=O)N(CC(C)C)CC(O)C(Cc2ccc(NCc3ccccc3-c3c(C(=O)O)[nH]c4cc(Cl)cc(Cl)c34)cc2)NC(=O)OC2COC3(C)OCCC23)cc1` (centres unmarked) [Compound I-633], 2.48 nM corresponded to half-maximal inhibition (IC50). Take `COc1ccc(S(=O)(=O)N(CC(C)C)CC(O)C(Cc2ccc(NCc3ccccc3-c3c(C(=O)O)[nH]c4cc(OC)ccc34)cc2)NC(=O)OC2COC3(C)OCCC23)cc1` (centres unmarked) [Compound I-634]: the IC50 was found to be 2.26 nM.

Turning to `COc1ccc(S(=O)(=O)N(CC(C)C)CC(O)C(Cc2ccc(NCc3ccccc3-c3c(C(=O)O)n(Cc4ccccc4)c4ccc(OC)cc34)cc2)NC(=O)OC2COC3(C)OCCC23)cc1` (centres unmarked) [Compound I-635], 2.1 nM corresponded to half-maximal inhibition (IC50).

The compound `COc1ccc(S(=O)(=O)N(CC(C)C)CC(O)C(Cc2ccc(N3CCC(C(=O)Nc4sc5c(c4C(=O)O)CC(C)(C)CC5)C3)cc2)NC(=O)OC2COC3(C)OCCC23)cc1` (centres unmarked) [Compound I-645] came in with an IC50 of 2.51 nM. Regarding `COc1ccc(S(=O)(=O)N(CC(C)C)CC(O)C(Cc2ccc(N3CCC(C(=O)N(C)c4sc5c(c4C(=O)O)CC(C)(C)CC5)C3)cc2)NC(=O)OC2COC3(C)OCCC23)cc1` (centres unmarked) [Compound I-646], the concentration for half-maximal inhibition (IC50) was found to be 2.92 nM. The result for `COc1ccc(S(=O)(=O)N(CC(C)C)CC(O)C(Cc2ccc(N(C)CCOc3ccccc3-c3sc4c(c3C(=O)O)CC(C)(C)CC4)cc2)NC(=O)OC2COC3(C)OCCC23)cc1` (centres unmarked) [Compound I-647] reads 2.59 nM; that for `COc1ccc(S(=O)(=O)N(CC(C)C)CC(O)C(Cc2ccc(NCc3cc(-c4sc5c(c4C(=O)O)CC(C)(C)CC5)cc4ccccc34)cc2)NC(=O)OC2COC3(C)OCCC23)cc1` (centres unmarked) [Compound I-650], 4.31 nM. `COc1ccc(S(=O)(=O)N(CC(C)C)CC(O)C(Cc2ccc(NCc3cc(Oc4ccccc4)ccc3-c3sc4c(c3C(=O)O)CC(C)(C)CC4)cc2)NC(=O)OC2COC3(C)OCCC23)cc1` (centres unmarked) [Compound I-654] yielded an IC50 of 8.75 nM. Compound `COc1ccc(S(=O)(=O)N(CC(C)C)CC(O)C(Cc2ccc(NCc3cc(Cl)ccc3C(=O)Nc3sc4c(c3C(=O)O)CC(C)(C)CC4)cc2)NC(=O)OC2COC3(C)OCCC23)cc1` (centres unmarked) [Compound I-656] had an IC50 of 6.57 nM.

In the case of `COc1ccc(S(=O)(=O)N(CC(C)C)CC(O)C(Cc2ccc(NCc3ccc(Cl)cc3C(=O)Nc3sc4c(c3C(=O)O)CC(C)(C)CC4)cc2)NC(=O)OC2COC3(C)OCCC23)cc1` (centres unmarked) [Compound I-657], it took 8.14 nM to reach half-maximal inhibition (IC50). Turning to `COc1ccc(S(=O)(=O)N(CC(C)C)CC(O)C(Cc2ccc(N(C)Cc3cc(Cl)ccc3C(=O)Nc3sc4c(c3C(=O)O)CC(C)(C)CC4)cc2)NC(=O)OC2COC3(C)OCCC23)cc1` (centres unmarked) [Compound I-658], the 50% inhibitory concentration (IC50) came out at 13.7 nM.
